≈ marks a conversion by molar mass, not a printed value. Where two headings read alike, the source gives them in different places.
Assays:
[1] = test system: A549 Sentinel Line; assay: Sentinel Line beta-galactosidase reporter assay (A549); format: cell-based; conditions: 40 hrs; for cell death / reporter activity: Sentinel Lines; for reporter activity: FIG. 6; for reporter activity, Gemcitabine-induced stress response: A549 sentinel line, FACS, FIG. 7
Method: The expression level of beta-galactosidase gene in sentinel lines was determined by using a fluorescent substrate fluorescein di-B-D-Galactopyranside (FDG, Marker Gene Tech, #M0250) introduced into cells by hypotonic shock. Cleavage by beta-galactosidase results in the production of free fluorescein, which is unable to cross the plasma membrane and is trapped inside the beta-gal positive cells. Briefly, the cells to be analyzed are trypsinized, and resuspended in PBS containing 2 mM FDG (diluted from a 10 mM stock prepared in 8:1:1 mixture of water: ethanol: DMSO). The cells were then shocked for 4 minutes at 37° C. and transferred to FACS tubes containing cold 1×PBS on ice. Samples were kept on ice for 30 minutes and analyzed by FACS in FL1 channel.
Sentinel Line cells with beta-galactosidase reporter gene were plated at 1×10^5 cells/10 cm dish. […] After 40 hrs, the cells were trypsinized and the expression level of reporter gene was determined by FDG loading.
The reporter activity was measured by FACS analysis.

[2] = test system: pancreatic lesions; conditions: cited from earlier work
[3] = test system: end-stage pancreatic cancer; conditions: cited from earlier work
[4] = test system: cats; conditions: cited from earlier work
[5] = test system: VEGF; assay: VEGF secretion by tumor cells; format: cell-based; conditions: FIG. 5
[6] = test system: HIF-1α; assay: HIF-1α induced by L-mimosone under normoxia in Hep3B cells; format: cell-based
Method: Abundance of HIF-1α and β-actin was determined by western blotting.

[7] = cited from earlier work
[8] = test system: cancer cell lines; assay: IC50 across several different cancer cell lines; format: cell-based; conditions: called predicted
[9] = cited from earlier work; remark: listed apart in the source
[10] = test system: pancreatic carcinoma cells carrying a K-Ras mutation; conditions: cited from earlier work
[11] = test system: rat mammary tumors induced by DMBA; conditions: relative to control group; cited from earlier work
[12] = test system: cancer of the pancreas; conditions: previously treated with 5-FU; cited from earlier work
[13] = test system: cancer of the pancreas; conditions: previously untreated patients; cited from earlier work
[14] = test system: pancreatic cancer; conditions: cited from earlier work
[15] = target: farnesyl protein transferase (FPTase) (Homo sapiens, UniProt P49354+P49356); conditions: cited from earlier work
Chain of farnesyl protein transferase (FPTase) (P49356 whole entry, one chain of several): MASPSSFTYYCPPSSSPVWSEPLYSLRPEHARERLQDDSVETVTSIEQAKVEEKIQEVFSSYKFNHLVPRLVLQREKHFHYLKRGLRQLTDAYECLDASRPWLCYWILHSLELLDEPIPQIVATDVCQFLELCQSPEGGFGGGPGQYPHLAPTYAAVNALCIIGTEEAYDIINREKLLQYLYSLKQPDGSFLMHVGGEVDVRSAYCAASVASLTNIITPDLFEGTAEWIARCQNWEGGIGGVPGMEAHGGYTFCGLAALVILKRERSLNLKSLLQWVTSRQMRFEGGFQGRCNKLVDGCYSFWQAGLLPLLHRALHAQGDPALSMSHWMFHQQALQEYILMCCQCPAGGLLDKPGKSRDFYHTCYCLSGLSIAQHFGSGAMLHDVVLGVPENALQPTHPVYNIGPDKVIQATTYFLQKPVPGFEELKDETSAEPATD

[16] = test system: pancreatic tumors; conditions: cited from earlier work
[17] = target: geranylgeranyl protein transferase (GGPTase) (Homo sapiens, UniProt P49354+P53609); conditions: cited from earlier work
Chain of geranylgeranyl protein transferase (GGPTase) (P53609 whole entry, one chain of several): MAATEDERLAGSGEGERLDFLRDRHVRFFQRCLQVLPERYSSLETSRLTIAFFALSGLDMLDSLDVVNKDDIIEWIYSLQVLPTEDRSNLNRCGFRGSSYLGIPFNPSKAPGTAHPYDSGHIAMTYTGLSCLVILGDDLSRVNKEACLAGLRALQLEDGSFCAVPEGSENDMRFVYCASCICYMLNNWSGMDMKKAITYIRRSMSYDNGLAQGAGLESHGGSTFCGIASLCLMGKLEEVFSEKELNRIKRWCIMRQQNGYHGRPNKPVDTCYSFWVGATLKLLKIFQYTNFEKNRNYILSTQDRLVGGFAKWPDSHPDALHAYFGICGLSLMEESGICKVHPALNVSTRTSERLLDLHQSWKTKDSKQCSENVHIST

[18] = test system: C38 colon adenocarcinoma and PO3 pancreatic ductal adenocarcinoma; conditions: in vivo; cited from earlier work
[19] = test system: pancreatic cancer; conditions: 40 patients; cited from earlier work
[20] = test system: pancreatic cancer; conditions: cited from earlier work; remark: listed apart in the source
[21] = test system: advanced pancreatic cancer; conditions: in vivo; cited from earlier work

CC(=O)O[C@H]1C(=O)[C@@]2(C)[C@H]([C@H](OC(=O)c3ccccc3)[C@]3(O)C[C@H](OC(=O)[C@H](O)[C@@H](NC(=O)c4ccccc4)c4ccccc4)C(C)=C1C3(C)C)[C@]1(OC(C)=O)CO[C@@H]1C[C@@H]2O [paclitaxel]
cell death [1]: increases | reporter activity [1]: increases

CN(C)C(=N)N=C(N)N [Metformin]
hyperplastic and premalignant lesions ([2]; 8.6 in high-fat group): 1.8 lesions per hamster | malignant lesions ([2]; drinking water for life, 50% in high-fat group): none were found

O=C1c2c(O)ccc(O)c2C(=O)c2c(NCCNCCO)ccc(NCCNCCO)c21 [mitoxanthrone, mitoxantrone]
cell death [1]: increases | reporter activity [1]: increases

CC[C@@]1(O)C(=O)OCc2c1cc1n(c2=O)Cc2cc3c([N+](=O)[O-])cccc3nc2-1 [Rubitecan, 9-nitrocamptothecin]
nonresponders ([3]; 60 patients): 36.6% | patients who responded favorably ([3]; 60 patients): 31.7% | patients with stabilized disease ([3]; 60 patients): 31.7% | survival ([3]; nonresponders): 6.8 months | median survival ([3]; responders): 18.6 months | median survival ([3]; stabilized disease): 9.7 months

N.N.O=C([O-])C1(C(=O)[O-])CCC1.[Pt+2] [Carboplatin]
cell death [1]: increases | reporter activity [1]: increases

C[C@@H]1OC(OC2C=C3CCC4C(CC[C@]5(C)[C@@H](c6ccc(=O)oc6)CC[C@]45O)[C@@]3(C)CC2)[C@H](O)[C@H](O)[C@H]1O (stereo partly drawn) [BNC-4, proscillaridin]
toxicity, duodenal administration [4]: 1.05 mg/kg | secretion of the angiogenesis factor VEGF [5]: inhibits | HIF-1α accumulation by L-mimosone ([6]; 200 μM L-mimosone, 18 h): eliminated HIF-1α accumulation | HIF-1α accumulation by L-mimosone ([6]; at the low concentration tested): did not appear to have an effect | drug and metabolites excreted by the bile ([7]; in vivo): Greater than 99% | measurable unconjugated drug as share of administered quantity ([7]; oral administration): 7% | time of second, longer-lasting peak ([7]; oral): about 1 hour | time of third peak after dosing ([7]; oral): about 10 hours | IC50 [8]: 2 to 8 ng/mL (≈ 0.00377 to 0.0151 µM) | reporter activity, Gemcitabine-induced stress response [1]: significantly shift the reporter activity to the left | serum levels at the maximum toxic dose (MTD) (mice): about 518 (±121) ng/ml | toxic serum concentration at day 1 (mice): about 518+121 ng/ml | steady state serum level at which anti-tumor activity was observed (xenograft nude mouse model): about 50 ng/mL | tolerance in cancer patients ([9]; 0.5 mg/d i.v. for 4 d before surgery, 50 patients): well tolerated by all cancer patients | patients taken off treatment for negative side effects ([9]; 1067 patients, up to 3 years): 0.7% | reported cases in which therapy could be resumed ([9]; after a brief hiatus): > 95% | doses producing typical intoxication symptoms ([9]; healthy individuals): above 4 mg p.o./d

C=C(C)[C@H]1CC=C(C)CC1 [Limonene]
growth reduction [10]: approximately 50%

COc1cc2ncnc(Nc3ccc(F)c(Cl)c3)c2cc1OCCCN1CCOCC1 [Iressa]
reporter activity [1]: reduction in reporter activity

CC(C)Cc1ccc(C(C)C(=O)O)cc1 (stereo not drawn) [Ibuprofen]
reduction in incidence of breast tumors [11]: 40% | reduction in multiplicity of breast tumors [11]: 52%

C[C@@H]1O[C@@H](O[C@H]2C[C@@H](O)[C@]3(CO)[C@H]4[C@H](O)C[C@]5(C)[C@@H](C6=CC(=O)OC6)CC[C@]5(O)[C@@H]4CC[C@]3(O)C2)[C@H](O)[C@H](O)[C@H]1O [BNC-1, ouabain]
toxicity, duodenal administration [4]: 5.3 mg/kg | secretion of the angiogenesis factor VEGF [5]: inhibits | IC50 [8]: 9 to 35 ng/mL (≈ 0.0154 to 0.0599 µM) | toxic serum concentration at day 1 (mice): about 50+21 ng/ml | therapeutic serum concentration required to achieve >60% TGI (steady state delivery in mice): about 20+15 ng/ml

Nc1ccn([C@@H]2O[C@H](CO)[C@@H](O)C2(F)F)c(=O)n1 [Gemcitabine]
patients alive at 1 year [12]: 1 in 25 | patients with symptom improvement for at least 1 month [12]: 1 in 4 | survival of the typical patient [12]: 4 months | reporter activity, Gemcitabine-induced stress response [1]: elevated reporter activity | patients alive at 1 year after starting therapy [13]: 1 in 5 | survival of the typical patient [13]: about 6 months | patients with clinical benefit ([14]; gemcitabine alone): 20-30% | 1-year survival rate ([14]; human, in vivo): 18%

C=C(C)[C@@H]1CC=C(CO)CC1 [Perillyl alcohol]
inhibition of Ras prenylation [15]: 17% | tumors completely regressed ([16]; hamster, in vivo): 16% | growth of pancreatic tumors ([16]; versus controls): less than half that of controls | inhibition of RhoA prenylation [17]: 28%

CC(=O)O[C@@]12CO[C@@H]1C[C@H](O)[C@@]1(C)C(=O)[C@H](O)C3=C(C)[C@@H](OC(=O)[C@H](O)[C@@H](NC(=O)OC(C)(C)C)c4ccccc4)C[C@@](O)([C@@H](OC(=O)c4ccccc4)[C@H]21)C3(C)C [docetaxel, Docetaxel]
complete regressions [18]: 80% | median duration of response [19]: 5.1 months | partial response [19]: 15% | stable disease [19]: 38%

O=c1[nH]cc(F)c(=O)[nH]1 [5-FU, 5-fluorouracil]
response rate [20]: less than 20% | patients alive at 1 year after starting therapy [13]: 1 in 50

Cn1c(=O)c2c(ncn2C)n(C)c1=O [caffeine]
median duration of survival [21]: 5 months | patients with objective responses [21]: 5.5%
